The source of these data is patent US20240417405A1, “Substituted Spiro Derivatives” (Janssen Pharmaceutica NV, priority 2021, published 2024).

In one assay the test system is KO-52 cells. The assay can be described thus: Proliferation assay, spheroid-like growth, KO-52 (MLL wildtype control cell line). It counts as cell-based, human. The note with it: KO-52 control cells, 8 days, confluence as measure of spheroid size, read-out: spheroid assay_OneTime KO-52 IC50. An outline of the steps: (§1)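 MOLM14 (MLL-AF9) or KO-52 (MLL wildtype) cells were grown in ultra-low attachment round-bottom wells with compound (0.3% DMSO) for 8 days at 37 °C. Spheroid confluence was imaged live on day 8, normalized to DMSO and a high-dose reference/staurosporin control, and absolute IC50 fitted with variable slope.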

Assay [1] addresses T1, menin/MLL (terbium chelate-labeled menin, FITC-MBM1 peptide) (Homo sapiens, UniProt O00255, T541A).
T1 construct: Menin (a.a 1-610-6xhis tag)
T1 sequence (O00255 with tags, fused parts or gaps T541A): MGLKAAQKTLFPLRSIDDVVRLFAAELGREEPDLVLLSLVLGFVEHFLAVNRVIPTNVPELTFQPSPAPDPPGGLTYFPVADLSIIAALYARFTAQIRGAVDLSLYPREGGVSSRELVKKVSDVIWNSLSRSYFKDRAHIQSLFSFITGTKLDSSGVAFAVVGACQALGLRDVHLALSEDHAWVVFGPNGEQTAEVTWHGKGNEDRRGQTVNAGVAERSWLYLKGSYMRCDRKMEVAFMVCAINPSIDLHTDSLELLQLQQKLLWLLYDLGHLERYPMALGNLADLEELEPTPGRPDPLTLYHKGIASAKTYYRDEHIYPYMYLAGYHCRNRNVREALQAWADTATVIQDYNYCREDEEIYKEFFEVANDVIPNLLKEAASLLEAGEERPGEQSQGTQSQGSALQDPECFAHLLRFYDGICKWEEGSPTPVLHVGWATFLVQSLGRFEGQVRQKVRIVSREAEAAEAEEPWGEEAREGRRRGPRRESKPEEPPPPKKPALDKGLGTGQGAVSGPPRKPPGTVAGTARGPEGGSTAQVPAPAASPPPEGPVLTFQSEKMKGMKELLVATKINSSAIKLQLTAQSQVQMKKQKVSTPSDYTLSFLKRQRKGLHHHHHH
The assay can be described thus: Menin/MLL homogenous time-resolved fluorescence (HTRF) assay. Particulars: 30 min incubation. Type of assay: binding. An outline of the steps: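 Read-out: TR-FRET ratio (FITC 520 nm / terbium 490 nm, ex. 337 nm) after 15 min with 75 nM FITC-MBM1 peptide. Test compound first sat 30 min with 200 pM Tb-menin 1-610-His, 0.5% DMSO, pH 7.5 Tris buffer. IC50 by Hill fit; values under 0.1 nM reported as 0.1 nM.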
In general terms: Time-resolved FRET reads energy transfer from a long-lived donor to a nearby acceptor.

In a further assay the test system is MOLM14 cells. The assay can be described thus: Proliferation assay, spheroid-like growth, MOLM14 (MLL-AF9 rearranged). Particulars: 8 days, confluence as measure of spheroid size, read-out: spheroid assay_OneTime MOLM14 IC50. It counts as cell-based, human. In short, it runs like this: as §1

Each structure is given as a SMILES string. Read-outs that look alike come from different tables or passages of the source.

As for `CC(C)C(C1CCN(CC2COC2)CC1)N1CC2(CCN(c3ncnnc3Oc3ccc(F)cc3-c3ncncc3C3CC3)C2)C1` (stereo not drawn) [Compound 203], the IC50 (usually the concentration that gives 50% inhibition) was determined as 1860 nM with KO-52 cells (Homo sapiens, 192 h); 0.8 nM in assay [1]; 300 nM in the assay with MOLM14 cells (Homo sapiens, MOLM-14, 192 h).

In the case of `CC(C)C([C@H]1C[C@@H](NC(=O)CCN(C)C)C1)N1CC2(CCN(c3ncnnc3Oc3ccc(F)cc3-c3cncnc3C3CC3)C2)C1` (stereo partly drawn) [Compound 302], the IC50 is 14100 nM in the assay on KO-52 cells (Homo sapiens, 192 h); 0.1 nM in assay [1]; 21 nM in the assay with MOLM14 cells (Homo sapiens, MOLM-14, 192 h).

Consider `CC(C)C([C@H]1C[C@@H](N2CCC3(COC3)C2)C1)N1CC2(CCN(c3ncnnc3Oc3ccc(F)cc3-c3cncnc3C3CC3)C2)C1` (stereo partly drawn) [Compound 326], for which the IC50 with KO-52 cells (Homo sapiens, 192 h) worked out at 9180 nM; in assay [1], 0.2 nM; with MOLM14 cells (Homo sapiens, MOLM-14, 192 h) it was 32 nM.

Regarding `CC(C)C([C@H]1C[C@@H](N2CCC3(CCO3)CC2)C1)N1CC2(CCN(c3ncnnc3Oc3ccc(F)cc3-c3cncnc3C3CC3)C2)C1` (stereo partly drawn) [Compound 327], the IC50 with KO-52 cells (Homo sapiens, 192 h) was over 15000 nM; in assay [1], 0.2 nM; in the assay with MOLM14 cells (Homo sapiens, MOLM-14, 192 h), 5 nM.

For `CC(=O)N1CC2CN([C@H]3C[C@@H]([C@H](C(C)C)N4CC5(CCN(c6ncnnc6Oc6ccc(F)cc6-c6cnc(C)nc6C6CC6)C5)C4)C3)CC2C1` (stereo partly drawn) [Compound 377], the IC50 was determined as 4840 nM in the assay on KO-52 cells (Homo sapiens, 192 h); 0.137 nM in assay [1]; 2.7 nM with MOLM14 cells.

In the case of `CC(C)C([C@H]1C[C@@H](Nc2ccnc(N)n2)C1)N1CC2(CCN(c3ncnnc3Oc3ccc(F)cc3-c3cncnc3C3CC3)C2)C1` (stereo partly drawn) [Compound 434], the concentration for half-maximal inhibition (IC50) in the assay on KO-52 cells (Homo sapiens, 192 h) was found to be 2000 nM; in assay [1], 0.08 nM; in the assay with MOLM14 cells (Homo sapiens, MOLM-14, 192 h), 2.9 nM.

`COc1ncc(-c2cc(F)ccc2Oc2nncnc2N2CCC3(C2)CN(C(C(C)C)[C@H]2C[C@@H](NC(C)=O)C2)C3)c(C2CC2)n1` (stereo partly drawn) [Compound 500]: the IC50 with KO-52 cells (Homo sapiens, 192 h) came out at 10200 nM; in assay [1], 0.3 nM; with MOLM14 cells (Homo sapiens, MOLM-14, 192 h) it was 35 nM.

`C[C@H]([C@H]1C[C@@H](NC(=O)OC(C)(C)C)C1)N1CC2(CCN(c3ncnnc3Oc3ccc(F)cc3-c3cncnc3C3CC3)C2)C1` [Compound 512a]: the IC50 with KO-52 cells turned out to be 310 nM; in assay [1], 29.8 nM; in the assay on MOLM14 cells, 40 nM.

As to `C[C@@H]([C@H]1C[C@@H](NC(=O)OC(C)(C)C)C1)N1CC2(CCN(c3ncnnc3Oc3ccc(F)cc3-c3cncnc3C3CC3)C2)C1` [Compound 512b], the figures for the IC50 (with KO-52 cells; in assay [1]; with MOLM14 cells) were 5810 nM, 0.589 nM and over 940 nM, respectively.
